Results from patent US4550170A, “6-Phenyl-2,3,5,6-tetrahydroimidazo-[2,1-b]-thiazole derivatives” (Institut Organicheskoi Khimii Akademii Nauk Ukrainskoi SSR, priority 1984, dated 1985).
Where a name gives a salt, the structure may show the parent alone. Read-outs that look alike come from different tables or passages of the source.

What was measured:
[1] = tested on: allergic reaction of the delayed type in mice; assay: delayed-type (contact) hypersensitivity reaction to dinitrochlorobenzene, ear thickness in mice; type: in vivo, CBA mice; settings: for Ear thickness, Control, Average value / Ear thickness, Control, Range of fluctuations: control (right) ear; for Ear thickness, Experiment, Average value / Ear thickness, Experiment, Range of fluctuations: test (left) ear
human tonsillocytes [2] = assay: natural cytotoxicity (natural killers) of human tonsillocytes, 51Cr release; type: cell-based; settings: for Yield of 51Cr from target cells, natural cytotoxicity, average value: (III) significant P below 0.05
From the text: (§1) The cytolytic effect of tonsillocytes was studied by the radioisotope method using Cr^51. On doing so, the deterioration of target cells (chicken's erythrocytes) by tonsil lymphocytes was regarded as spontaneous cytolysis, while the destruction of the target cells loaded, in addition to the isotopic tracer, with homologous antibodies in the sublytic dose was considered as antibody-dependent cytolysis. […] Afterwards they were twice washed by means of Medium 199 using centrifugation (105 g, 10 minutes). […] The degree of destruction of the target cells was determined radiometrically by the outcome of Cr^51 into the liquid phase.

human tonsillocytes [3] = assay: antibody-dependent cytotoxicity of human tonsillocytes, 51Cr release; type: cell-based; settings: for minimal effective concentration: Homo sapiens, read-out: concentration stimulating the antibody-dependent cytolytic activity
From the text: as §1, with “On this basis, the effect of one of the lest toxic compound (III) out of those of the present invention was studied for the antibody-dependent cytolytic activity of cells. […] The cytolytic” for “The cytolytic”

[4] = tested on: virus of vesicular stomatitis; type: cell-based
[5] = tested on: Staphylococcus aureus, Proteum, Bacillus pyocyanes; assay: antibacterial activity in vitro, serial dilutions; type: cell-based; settings: relative to compound (II)
Protocol: In the experiments in vitro the antibacterial activity of the compounds of the present invention was studied. To this end, serial dilutions of compounds (II) and (III) with a concentration of from 1% to 0.00001% were prepared and 0.1 ml of a microbal suspension was added thereto (Staphylococcus aureus, Proteum, Bacillus pyocyanes). The microbal load for staphylococcus was about 1×10^5 cells/ml, for Proteum and Bacillus pyocyanes -1×10^4 c cells/ml. […] The bacteria were incubated along with the compounds according to the present invention at the temperature of 37° C. […] Inoculations were effected by spreading 0.1 ml of a suspension of bacteria in a corresponding dilution of the compounds over the surface of an agar dish using a glass spatula.

[6] = physical properties of the compounds; type: physicochemical
in vivo [7] = settings: mouse, sc
in vivo [8] = settings: rat, rats
in vivo [9] = settings: rabbit
[10] = tested on: IgE antibodies in respiratory organs
Protocol: The local production of IgE-antibodies in trachea and lungs of rats of the lines WAY, August with a mass of 250-300 g was induced by means of a successive (with the interval of 40 minutes) dropping a 0.1% solution of histamine and ambrosia allergen (10,000 PNU/ml) into both nasal passages. […] One day after the administration of the allergen IgE-antibodies were determined in homogenates of trachea and lungs prepared at the rate of 0.1 ml of a physiological solution per 10 mg of the tissue by the method of indirect degranulation of obese cells.

[11] = tested on: delayed-type hypersensitivity reaction; assay: delayed-type hypersensitivity reaction to 2,4-dinitrochlorobenzene in guinea pigs; type: in vivo
[12] = tested on: delayed-type hypersensitivity reaction; assay: delayed-type hypersensitivity reaction to rat's thymocytes in mice (popliteal lymph nodes); type: in vivo; settings: for effect on the development of the delayed-type hypersensitivity reactions: Table 3 (mice and guinea pigs)
splenocytes = assay: effect on cyclic nucleotides (c-AMP, c-GMP) and phosphodiesterase of c-AMP; type: cell-based
immune system = settings: prior art; cited from earlier work
[13] = prior art, hydrochloride, cited from earlier work
[14] = 1 μg/ml, (III) significant P below 0.05
[15] = 10 μg/ml, (III) significant P below 0.05
[16] = 100 μg/ml, levamizole significant P below 0.05
[17] = 100 μg/ml, certainty: (II), (III) below 0.05, (I), levamizole above 0.05
[18] = 500 μg/ml, certainty: all below 0.05
[19] = second levamizole line, printed 2.5 mg/kg
[20] = 100 μg/ml, negative = test value exceeded the control

NC(=O)C[N+]1=C2SCCN2CC1c1ccccc1 (stereo not shown) [Compound (III), 2,3,5,6-tetrahydro-6-phenyl-7-carbamoylmethylimidazo-[2,1-b]-thiazolium bromide]
Ear thickness, Control, Average value ([1]; 2.5 mg/kg per os): 176.7 μm | Ear thickness, Control, Range of fluctuations ([1]; 2.5 mg/kg per os): 110-210 μm | Ear thickness, Experiment, Average value ([1]; 2.5 mg/kg per os): 184.4 μm | Ear thickness, Experiment, Range of fluctuations ([1]; 2.5 mg/kg per os): 110-220 μm | Ear thickness, Control, Average value ([1]; 25 mg/kg per os): 184.4 μm | Ear thickness, Control, Range of fluctuations ([1]; 25 mg/kg per os): 170-200 μm | Ear thickness, Experiment, Average value ([1]; 25 mg/kg per os): 190.0 μm | Ear thickness, Experiment, Range of fluctuations ([1]; 25 mg/kg per os): 170-200 μm | dose sufficient for inhibition of the contact hypersensitivity, lower than that of levamizole ([1]; ratio to levamizole): 10 times | Yield of 51Cr from target cells, natural cytotoxicity, range of fluctuations (human tonsillocytes [2]; 1 μg/ml): 7.0-60.0% | Yield of 51Cr from target cells, natural cytotoxicity, average value (human tonsillocytes [2]; 1 μg/ml): 30.6% | Yield of 51Cr from target cells, natural cytotoxicity, range of fluctuations (human tonsillocytes [2]; 10 μg/ml): 7.0-42.0% | Yield of 51Cr from target cells, natural cytotoxicity, average value (human tonsillocytes [2]; 10 μg/ml): 28.8% | Yield of 51Cr from target cells, natural cytotoxicity, range of fluctuations (human tonsillocytes [2]; 100 μg/ml): 1.0-40.0% | Yield of 51Cr from target cells, natural cytotoxicity, average value (human tonsillocytes [2]; 100 μg/ml): 24.8% | Yield of 51Cr from target cells, antibody dependent cytotoxicity, range of fluctuations (human tonsillocytes [3]; 1 μg/ml): 10.0-57.0% | Yield of 51Cr from target cells, antibody dependent cytotoxicity, average (human tonsillocytes [3]; [14]): 23.2% | Yield of 51Cr from target cells, antibody dependent cytotoxicity, range of fluctuations (human tonsillocytes [3]; 10 μg/ml): 13.0-36.0% | Yield of 51Cr from target cells, antibody dependent cytotoxicity, average (human tonsillocytes [3]; [15]): 22.6% | Yield of 51Cr from target cells, antibody dependent cytotoxicity, range of fluctuations (human tonsillocytes [3]; 100 μg/ml): 4.0-40.0% | Yield of 51Cr from target cells, antibody dependent cytotoxicity, average (human tonsillocytes [3]; [16]): 19.1% | minimal effective concentration (human tonsillocytes [3]): 1 to 10 µg/mL | stimulating concentration lower as compared to levamizole, antibody-dependent cytolytic activity (human tonsillocytes [3]; ratio to levamizole): 10-100 times | Degree of inhibition of the virus reproduction ([4]; 1 μg/ml): 10 times | Degree of inhibition of the virus reproduction ([4]; 10 μg/ml): 100 times | antibacterial activity lower by a factor of [5]: 2 | solubility in acetone ([6]; acetone): only slightly soluble | solubility in benzene ([6]; benzene): only slightly soluble | solubility in lower alcohols ([6]; lower alcohols): well soluble | solubility in water ([6]; water): well soluble | LD50 (in vivo [7]): 1020 mg/kg | LD50 (in vivo [8]; po, LD50 upon peroral administration, female): 3500 mg/kg | LD50 (in vivo [8]; po, LD50 upon peroral administration, male): 5750 mg/kg | LD50 (in vivo [8]; sc, LD50 upon subcutaneous injection, female): 1420 mg/kg | LD50 (in vivo [8]; sc, LD50 upon subcutaneous injection, male): 2580 mg/kg | LD50 (in vivo [9]; po): 3330 mg/kg | LD50 (in vivo [9]; sc): 317 mg/kg | Percent of degranulated mastocytes, Lungs [10, 17]: 10.6 ± 3.9% | Percent of degranulated mastocytes, Trachea [10, 17]: 9.1 ± 2.1% | Percent of degranulated mastocytes, Lungs [10, 18]: 6.1 ± 1.1% | Percent of degranulated mastocytes, Trachea [10, 18]: 7.1 ± 1.7%

c1ccc([C@H]2CN3CCSC3=N2)cc1 [levamizole, L-(-)-2,3,5,6-tetrahydro-6-phenylimidazo-[2,1-b]-thiazole hydrochloride, reference compound]
Ear thickness, Control, Average value ([1]; 2.5 mg/kg per os): 162.3 μm | Ear thickness, Control, Range of fluctuations ([1]; 2.5 mg/kg per os): 130-200 μm | Ear thickness, Experiment, Average value ([1]; 2.5 mg/kg per os): 210.0 μm | Ear thickness, Experiment, Range of fluctuations ([1]; 2.5 mg/kg per os): 160-280 μm | dose inhibiting the development of the contact hypersensitivity ([1]; per os): 25 mg/kg | Ear thickness, Control, Average value [1, 19]: 179.2 μm | Ear thickness, Control, Range of fluctuations [1, 19]: 160-190 μm | Ear thickness, Experiment, Average value [1, 19]: 179.2 μm | Ear thickness, Experiment, Range of fluctuations [1, 19]: 170-190 μm | Difference in temperature of the pad surfaces, Average value [11, 20]: -1.3 ± 0.06 °C | Difference in thickness of control and test talipes, Average value [11, 20]: -0.75 ± 0.08 mm | Difference in temperature of the pad surfaces, Average value ([11]; 1,000 μg/ml): +1.1 ± 0.11 °C | Difference in thickness of control and test talipes, Average value ([11]; 1,000 μg/ml): +0.51 ± 0.064 mm | effect on the development of the delayed-type hypersensitivity reactions ([12]; 100 μg/ml): surely stimulates | Difference in masses of popliteal lymph nodes in the control and test limb, Average value [12, 20]: -0.9 ± 0.13 mg | Difference in masses of popliteal lymph nodes in the control and test limb, Average value ([12]; 500 μg/ml): +1.0 ± 0.13 mg | Difference in masses of popliteal lymph nodes in the control and test limb, Average value ([12]; 1,000 μg/ml): +1.2 ± 0.12 mg | effect on the development of the delayed-type hypersensitivity reactions ([12]; 500 and 1,000 μg/ml): effectively inhinits | Yield of 51Cr from target cells, natural cytotoxicity, range of fluctuations (human tonsillocytes [2]; 1 μg/ml): 3.0-41.0% | Yield of 51Cr from target cells, natural cytotoxicity, average value (human tonsillocytes [2]; 1 μg/ml): 16.2% | Yield of 51Cr from target cells, natural cytotoxicity, range of fluctuations (human tonsillocytes [2]; 10 μg/ml): 5.0-53.0% | Yield of 51Cr from target cells, natural cytotoxicity, average value (human tonsillocytes [2]; 10 μg/ml): 18.4% | Yield of 51Cr from target cells, natural cytotoxicity, range of fluctuations (human tonsillocytes [2]; 100 μg/ml): 5.0-49.0% | Yield of 51Cr from target cells, natural cytotoxicity, average value (human tonsillocytes [2]; 100 μg/ml): 20.5% | activity of natural killers of tonsil cells (human tonsillocytes [2]; levamizole): not noticeably changed | Yield of 51Cr from target cells, antibody dependent cytotoxicity, range of fluctuations (human tonsillocytes [3]; 1 μg/ml): 1.0-32.0% | Yield of 51Cr from target cells, antibody dependent cytotoxicity, average (human tonsillocytes [3]; [14]): 14.0% | Yield of 51Cr from target cells, antibody dependent cytotoxicity, range of fluctuations (human tonsillocytes [3]; 10 μg/ml): 1.0-36.0% | Yield of 51Cr from target cells, antibody dependent cytotoxicity, average (human tonsillocytes [3]; [15]): 14.2% | Yield of 51Cr from target cells, antibody dependent cytotoxicity, range of fluctuations (human tonsillocytes [3]; 100 μg/ml): 8.0-39.0% | Yield of 51Cr from target cells, antibody dependent cytotoxicity, average (human tonsillocytes [3]; [16]): 22.8% | minimal effective concentration (human tonsillocytes [3]): 100 µg/mL | concentrations of c-AMP and c-GMP (splenocytes): reciprocal variations of concentrations of c-AMP and c-GMP | Degree of inhibition of the virus reproduction ([4]; 1 μg/ml): 0 times | Degree of inhibition of the virus reproduction ([4]; 10 μg/ml): 10 times | antibacterial activity lower by a factor of [5]: 2 | effect in respect of various immunological responses (immune system): stimulating effect in respect of various immunological responses | toxicity and side effects [13]: high toxicity and a high frequency of the observed side effects | toxicity and side effects ([13]; listed as Levamizole): toxic and has diverse side effects | Percent of degranulated mastocytes, Lungs [10, 17]: 18.1 ± 1.9% | Percent of degranulated mastocytes, Trachea [10, 17]: 17.3 ± 1.8% | Percent of degranulated mastocytes, Lungs [10, 18]: 6.1 ± 1.1% | Percent of degranulated mastocytes, Trachea [10, 18]: 7.4 ± 0.2% | concentration inhibiting the formation of the IgE-antibodies in the respiratory organs ([10]; rat, in vivo): 500 µg/mL
